Reference: article PMC11981937 (Nature, 2025)
“And” between values parts separate entries of the source, which are not always exact repeats. Equal values may be shown once. “Also recorded” adds a separate entry of the source. Read-outs that look alike come from different tables or passages of the source.

Legend:
[1] = tested on: WIV-1; assay: organism not typed; format: cell-based, bat WIV-1
[2] = tested on: SHC014; assay: organism not typed; format: cell-based, bat SHC014
[3] = tested on: HCoV-229E; assay: microbe, parasite or virus in culture; format: cell-based; conditions: Human coronavirus 229E
[4] = tested on: HCoV-OC43; assay: HCoV-OC43 antiviral CPE reduction assay in MRC-5 cells; format: cell-based
Source text: 161 determined with Promega CellTiter 96™ via a colorimetric assay (MTS assay). Readout was done
162 using a GloMax® Discover Microplate Reader (Promega).
163 Data were normalized taking the infected cells without treatment and the mock non-infected cells
164 as the bottom and top values of the dose-response curves, respectively. Dose-response curves were
165 fitted using non-linear regression analysis employing a sigmoidal model in Graphpad Prism
166 (version 9.5.0). In each experiment, data were presented as mean ± standard error of the mean of
167 3 technical replicates.
168 HCoV-OC43 antiviral CPE reduction assay
169 For the HCoV-OC43 CPE reduction assay, MRC-5 cells were seeded in black or white 96-well
170 plates (Greiner Bio-One) at a density of 10,000 cells/well and incubated overnight at 37°C. The
171 next day, compound was added to the assay plates in either a 4-fold dilution series or 2-fold dilution
172 series. Sequentially, cells were infected with HCoV-OC43 at a final MOI of 0.3. Plates were then
173 incubated for 6 days at 33°C under 5% CO2. […]
174 determined using the Viral ToxGlo™ assay (Promega) on a BioTek spectrophotometer.
175 Cytotoxicity was evaluated in parallel in treated, uninfected cells in a similar set-up with the same
176 readout. EC50 and CC50 values were calculated using GraphPad Prism 9.5.0. […]
181 0.1. […] Readouts for antiviral activity […]

[5] = tested on: MHV; assay: MHV antiviral assay in HeLa cells (luciferase); format: cell-based, mouse hepatitis virus; conditions: Murine coronavirus, MHV (betaCoV)
[6] = tested on: SARS-CoV-2 B1; format: in vivo, Syrian golden hamster; conditions: for Histopathology score, average / Histopathology score, median / Infectious virus in the lung (TCID50/mg), average Log 10 / Infectious virus in the lung (TCID50/mg), median Log 10 / Viral load (viral RNA) in the lung, average Log 10 / Viral load (viral RNA) in the lung, median Log 10: n=5; for Histopathology score, individual animal / Infectious virus in the lung (TCID50/mg), Log 10, individual animal / Infectious virus in the lung, individual animal / Viral load (viral RNA) in the lung, Copy number, individual animal / Viral load (viral RNA) in the lung, Log 10, individual animal: listed as 87009676-AAA
[7] = pre-exposure, 8.33 mg/kg BID, 8.33 mg/kg
[8] = pre-exposure, 25 mg/kg BID, 25 mg/kg
[9] = pre-exposure, 75 mg/kg BID, 75 mg/kg
[10] = pre-exposure, 8.33 mpk BID, 8.33 mg/kg
[11] = pre-exposure, 25 mpk BID, 25 mg/kg

## C[C@H]1Cn2ncc(C(=O)Nc3cccc(C#N)c3)c2C(=O)N1c1ccc(C(F)(F)c2ccccc2)cc1 [JNJ-9676, (S)-N-(3-cyanophenyl)-5-(4-(difluoro(phenyl)methyl)phenyl)-6-methyl-4-oxo-4,5,6,7-tetrahydropyrazolo[1,5-a]pyrazine-3-carboxamide]
[1]
  EC50: 0.004 to 0.006 µM
[2]
  EC50: 0.004 to 0.006 µM
[3]; read-out: Median EC50
  EC50: > 12.5 µM
[3]; read-out: Median EC90
  EC90: > 12.5 µM
[4]; Betacoronavirus 1, MRC5, MRC-5, HCOV-OC43 (betaCoV), EC90 could be calculated in one experiment, read-out: Median EC90
  EC90: 4 µM
[4]; Betacoronavirus 1, OC43, MRC5, read-out: Median EC50
  EC50: 3.9 µM
[5]; read-out: EC50 (column Median EC50; N=1, no median)
  EC50: 1.3 µM
[5]; read-out: EC90 (column Median EC90; N=1, no median)
  EC90: 6.3 µM
[6]; Syrian golden hamster model
  lowest effective dose: 25 mg per kg BID
[6]; pre-exposure, 8.33 mg/kg BID
  Histopathology score, average: 1.80
  Histopathology score, median: 2.00
  Infectious virus in the lung (TCID50/mg), average Log 10: 4.72 Log 10
  Infectious virus in the lung (TCID50/mg), median Log 10: 4.67 Log 10
  Viral load (viral RNA) in the lung, average Log 10: 4.56 Log 10
  Viral load (viral RNA) in the lung, median Log 10: 4.62 Log 10
[6]; [7]
  Histopathology score, individual animal: 2 and 1.5
  Infectious virus in the lung (TCID50/mg), Log 10, individual animal: 5.82 Log 10 and 3.86 Log 10 and 4.99 Log 10 and 4.24 Log 10 and 4.67 Log 10
  Infectious virus in the lung, individual animal: 662125.31 TCID50/mg and 7237.18 TCID50/mg and 98821.18 TCID50/mg and 17573.17 TCID50/mg and 46447.60 TCID50/mg
  Viral load (viral RNA) in the lung, Copy number, individual animal: 2.23E+04 and 1.34E+05 and 8.49E+02 and 4.14E+04 and 6.27E+05
  Viral load (viral RNA) in the lung, Log 10, individual animal: 4.35 Log 10 and 5.13 Log 10 and 2.93 Log 10 and 4.62 Log 10 and 5.80 Log 10
[6]; pre-exposure, 25 mg per kg BID
  cumulative histopathological lung score (in words): reduced to the baseline; also recorded: significantly reduced
[6]; pre-exposure, 25 mg per kg BID, oral
  reduction of viral load in the lung: 3.5 log10[RNA copies per mg lung]
[6]; pre-exposure, 25 mg/kg BID
  Histopathology score, average: 1.40
  Histopathology score, median: 1.50
  Infectious virus in the lung (TCID50/mg), average Log 10: 0.81 Log 10
  Infectious virus in the lung (TCID50/mg), median Log 10: 1.28 Log 10
  Viral load (viral RNA) in the lung, average Log 10: 9.46 Log 10
  Viral load (viral RNA) in the lung, median Log 10: 9.30 Log 10
[6]; [8]
  Histopathology score, individual animal: 1.5 and 1
  Infectious virus in the lung (TCID50/mg), Log 10, individual animal: -2.00 Log 10 and 4.24 Log 10 and 2.52 Log 10 and 1.28 Log 10
  Infectious virus in the lung, individual animal: 0.01 TCID50/mg and 17417.65 TCID50/mg and 328.03 TCID50/mg and 19.08 TCID50/mg
  Viral load (viral RNA) in the lung, Copy number, individual animal: 7.91E+09 and 1.46E+09 and 1.22E+09 and 1.99E+09 and 7.25E+09
  Viral load (viral RNA) in the lung, Log 10, individual animal: 9.90 Log 10 and 9.16 Log 10 and 9.08 Log 10 and 9.30 Log 10 and 9.86 Log 10
[6]; pre-exposure, 75 mg per kg BID
  cumulative histopathological lung score (in words): significantly reduced
[6]; pre-exposure, 75 mg/kg BID
  Histopathology score, average: 1.20
  Histopathology score, median: 1.00
  Infectious virus in the lung (TCID50/mg), average Log 10: 1.08 Log 10
  Infectious virus in the lung (TCID50/mg), median Log 10: 2.38 Log 10
  Viral load (viral RNA) in the lung, average Log 10: 4.57 Log 10
  Viral load (viral RNA) in the lung, median Log 10: 3.13 Log 10
[6]; [9]
  Histopathology score, individual animal: 1 and 1.5
  Infectious virus in the lung (TCID50/mg), Log 10, individual animal: -2.00 Log 10 and 3.24 Log 10 and 3.78 Log 10 and 2.38 Log 10
  Infectious virus in the lung, individual animal: 0.01 TCID50/mg and 1756.82 TCID50/mg and 5984.59 TCID50/mg and 240.02 TCID50/mg
  Viral load (viral RNA) in the lung, Copy number, individual animal: 4.93E+02 and 1.36E+03 and 1.66E+06 and 2.19E+08 and 2.75E+02
  Viral load (viral RNA) in the lung, Log 10, individual animal: 2.69 Log 10 and 3.13 Log 10 and 6.22 Log 10 and 8.34 Log 10 and 2.44 Log 10
[6]; [10]
  Infectious virus in the lung, reduction relative to vehicle: 0.50 (p>0.05) log10 TCID50/mg lung and 0.50 (p>0.05) log10 TCID50/mg lung
  Viral load in the lung, reduction relative to vehicle: 2.01 (p>0.05) log10 copies/mg lung and 2.01 (p>0.05) log10 copies/mg lung
[6]; [11]
  Infectious virus in the lung, reduction relative to vehicle: 4.41 (p=0.02) log10 TCID50/mg lung and 4.41 (p=0.02) log10 TCID50/mg lung
  Viral load in the lung, reduction relative to vehicle: 3.51 (p=0.0003 log10 copies/mg lung and 3.51 (p=0.0003) log10 copies/mg lung
[6]; pre-exposure, 75 mpk BID, 75 mg/kg
  Infectious virus in the lung, reduction relative to vehicle: 4.14 (p=0.03) log10 TCID50/mg lung and 4.14 (p=0.03) log10 TCID50/mg lung
